According to US9107926B2, “Mutant selectivity and combinations of a phosphoinositide 3-kinase inhibitor compound and chemotherapeutic agents for the treatment of cancer” (Genentech, Inc., priority 2012, dated 2015):

Tests used:
[1] = tested on: SW48 isogenic cells; parental and PIK3CA knock-in mutants E545K and H1047R; experiment: western blot of cell lysates after 18 hours of GDC-0032 exposure; format: cell-based; details: lysates collected 18 hours post dosing
HOP92 = experiment: CellTiter-Glo cell proliferation assay; format: cell-based; details: Homo sapiens, HOP-92, Lung(NSCLC), WT
KM12 = experiment: CellTiter-Glo cell proliferation assay; format: cell-based; details: Homo sapiens, Colon, PTEN
H596 = experiment: CellTiter-Glo cell proliferation assay; format: cell-based; details: Homo sapiens, NCI-H596, Lung(NSCLC), Helical-HET.545E > K, HET.997L > P
MO59J = experiment: CellTiter-Glo cell proliferation assay; format: cell-based; details: Glioma, PTEN/KRAS
FUOV1 = experiment: CellTiter-Glo cell proliferation assay; format: cell-based; details: Ovarian, WT
Method: (§2) Cell Culture Medium: RPMI or DMEM high glucose, 10% Fetal Bovine Serum, 2 mM L-Glutamine, P/S. Incubate O/N (overnight) at 37° C., 5% CO2.
(§3) Drug Addition to Cells, Cell Plate (1:10 dilution): Add 6 μl of media+compound directly to cells (54 μl of media on the cells already). Incubate 3 days at 37° C., 5% CO2 in an incubator that will not be opened often.
(§4) Day 5—Develop Plates, Thaw Cell Titer Glo Buffer at room temperature: Remove Cell Plates from 37° C. and equilibrate to room temperature for about 30 minutes. Add Cell Titer-Glo® Buffer to Cell Titer-Glo® Substrate (bottle to bottle). Add 30 μl Cell Titer-Glo® Reagent (Promega cat.#G7572) to each well of cells. Place on plate shaker for about 30 minutes. Read luminescence on Analyst HT Plate Reader (half second per well).

SW403 = experiment: CellTiter-Glo cell proliferation assay; format: cell-based; details: Homo sapiens, SW-403, Colon, KRAS/HET.546Q > K
C32 = experiment: CellTiter-Glo cell proliferation assay; format: cell-based; details: Homo sapiens, Melanoma, PTEN/B-Raf
HOP62 = experiment: CellTiter-Glo cell proliferation assay; format: cell-based; details: Homo sapiens, HOP-62, Lung(NSCLC), K-RAS
DLD-1 = experiment: CellTiter-Glo cell proliferation assay; format: cell-based; details: Homo sapiens, Colon, KRAS/HET.545E > K
KNS-62 = experiment: CellTiter-Glo cell proliferation assay; format: cell-based; details: Homo sapiens, Lung(NSCLC), K-RAS
Caov3 = experiment: CellTiter-Glo cell proliferation assay; format: cell-based; details: Homo sapiens, Caov-3, Ovarian, WT
U87MG = experiment: CellTiter-Glo cell proliferation assay; format: cell-based; details: Homo sapiens, U-87 MG, Glioma, PTEN
H1793 = experiment: CellTiter-Glo cell proliferation assay; format: cell-based; details: Homo sapiens, NCI-H1793, Lung(NSCLC), WT
U-118MG = experiment: CellTiter-Glo cell proliferation assay; format: cell-based; details: Homo sapiens, Glioma, PTEN
MX-1 = experiment: CellTiter-Glo cell proliferation assay; format: cell-based; details: Homo sapiens, MX1, Breast, PTEN
Method: as §2, §3, §4

H23 = experiment: CellTiter-Glo cell proliferation assay; format: cell-based; details: Homo sapiens, NCI-H23, Lung(NSCLC), K-RAS
A375 = experiment: CellTiter-Glo cell proliferation assay; format: cell-based; details: Homo sapiens, A-375, Melanoma, B-Raf
Cal 85-1 = experiment: CellTiter-Glo cell proliferation assay; format: cell-based; details: Homo sapiens, Breast, WT
G96 = experiment: CellTiter-Glo cell proliferation assay; format: cell-based; details: Glioma, WT
SW948 = experiment: CellTiter-Glo cell proliferation assay; format: cell-based; details: Homo sapiens, Colon, KRAS/HOM.542E > K
H2171 = experiment: CellTiter-Glo cell proliferation assay; format: cell-based; details: Homo sapiens, NCI-H2171, Lung(SC), K-RAS
[2] = tested on: MCF-7 neo/HER2 breast cancer tumor xenografts; experiment: In vivo mouse tumor xenograft efficacy; set-up: species or system mice; details: for % TGI@ day 21: QD
Method: (§1) Xenografts were initiated with cancer cells. […] Volume was calculated using the formula: […]

[3] = tested on: PC3 prostate cancer tumor xenografts; experiment: In vivo mouse tumor xenograft efficacy; set-up: species or system mice
Method: as §1

[4] = tested on: HM-7 colorectal cancer tumor xenografts; experiment: In vivo mouse tumor xenograft efficacy; set-up: species or system mice
Method: as §1

[5] = tested on: KPL4 breast tumor xenografts; experiment: In vivo mouse tumor xenograft efficacy; set-up: species or system mice
Method: as §1

[6] = tested on: 537 MEL melanoma cancer tumor xenografts; experiment: In vivo mouse tumor xenograft efficacy; set-up: species or system mice; details: PO daily (QD), 21 days
Method: as §1

[7] = tested on: 22RV1 prostate cancer tumor xenografts; experiment: In vivo mouse tumor xenograft efficacy; set-up: species or system mice; details: PO daily (QD), 24 days
Method: as §1

[8] = tested on: NCI-H1975 non-small cell lung cancer (NSCLC) tumor xenografts; experiment: In vivo mouse tumor xenograft efficacy; set-up: species or system mice; details: PO daily (QD), 24 day treatment period; versus vehicle
Method: as §1

H441 = experiment: CellTiter-Glo cell proliferation assay; format: cell-based; details: Homo sapiens, NCI-H441, Lung(NSCLC), K-RAS
H2122 = experiment: CellTiter-Glo cell proliferation assay; format: cell-based; details: Homo sapiens, NCI-H2122, Lung(NSCLC), K-RAS
A549 = experiment: CellTiter-Glo cell proliferation assay; format: cell-based; details: Homo sapiens, Lung(NSCLC), K-RAS
H647 = experiment: CellTiter-Glo cell proliferation assay; format: cell-based; details: Homo sapiens, NCI-H647, Lung(NSCLC), K-RAS
H1650 = experiment: CellTiter-Glo cell proliferation assay; format: cell-based; details: Homo sapiens, NCI-H1650, Lung(NSCLC), PTEN
H1299 = experiment: CellTiter-Glo cell proliferation assay; format: cell-based; details: Homo sapiens, NCI-H1299, Lung(NSCLC), N-RAS
H460 = experiment: CellTiter-Glo cell proliferation assay; format: cell-based; details: Homo sapiens, NCI-H460, Lung(NSCLC), KRAS/HEt.545E > K
HS 578T-1x2 = experiment: CellTiter-Glo cell proliferation assay; format: cell-based; details: Breast, WT
EBC-1 = experiment: CellTiter-Glo cell proliferation assay; format: cell-based; details: Homo sapiens, Lung(NSCLC), K-RAS

SMILES: Cc1nc(-c2cn3c(n2)-c2ccc(-c4cnn(C(C)(C)C(N)=O)c4)cc2OCC3)n(C(C)C)n1 [GDC-0032, 2-(4-(2-(1-isopropyl-3-methyl-1H-1,2,4-triazol-5-yl)-5,6-dihydrobenzo[f]imidazo[1,2-d][1,4]oxazepin-9-yl)-1H-pyrazol-1-yl)-2-methylpropanamide]
- apoptosis induction (autoradiograms of lysates) [1]: induces apoptosis in cells harboring PI3K mutations at very low compound concentrations
- EC50 (HOP92): 1690 nM
- EC50 (KM12): 4690 nM
- EC50 (H596): 58 nM
- EC50 (MO59J): 5650 nM
- EC50 (FUOV1): 62 nM
- EC50 (SW403): 143 nM
- EC50 (C32): 5810 nM
- EC50 (HOP62): 3090 nM
- EC50 (DLD-1): 2500 nM
- EC50 (KNS-62): 3560 nM
- EC50 (Caov3): 4780 nM
- EC50 (U87MG): 1020 nM
- EC50 (H1793): 2020 nM
- EC50 (U-118MG): 3200 nM
- EC50 (MX-1): 892 nM
- EC50 (H23): 2740 nM
- EC50 (A375): 10000 nM
- EC50 (Cal 85-1): 520 nM
- EC50 (G96): 201 nM
- EC50 (SW948): 62 nM
- EC50 (H2171): 1450 nM
- tumor response ([2]; 22.5 mg/kg, after 10 days of treatment, versus vehicle): increased tumor regressions
- tumor volume change ([2]; PO daily (QD), 20 days, nude mice): dose dependent decrease in tumor volume
- % TGI@ day 21 ([2]; 5.0 mg/kg): 57%
- % TGI@ day 21 ([2]; 10 mg/kg): 83%
- % TGI@ day 21 ([2]; 20 mg/kg): 83%
- anti-tumor efficacy ([3]; doses <12.5 mg/kg, daily dosing for 14 days): not efficacious
- anti-tumor response ([3]; highest dose tested (25 mg/kg), daily, 14 days): tumor stasis
- tumor response ([4]; 25 mg/kg, end of treatment on day 7, versus vehicle): increased tumor regressions
- tumor volume change ([4]; PO daily (QD), 7 days): dose dependent decrease in tumor volume
- tumor response ([5]; 25 mg/kg, end of treatment on day 21, versus vehicle): increased tumor regressions
- tumor volume change ([5]; PO daily (QD), 21 days, SCID beige mice): dose dependent decrease in tumor volume
- tumor volume change [6]: dose-dependent decrease in tumor volume
- tumor volume change [7]: dose-dependent decrease in tumor volume
- tumor volume change [8]: dose-dependent decrease in tumor volume
- EC50 (H441): 10000 nM
- EC50 (H2122): 366 nM
- EC50 (A549): 906 nM
- EC50 (H647): 9020 nM
- EC50 (H1650): 1480 nM
- EC50 (H1299): 1720 nM
- EC50 (H460): 603 nM
- EC50 (HS 578T-1x2): 2070 nM
- EC50 (EBC-1): 1660 nM
